Where two headings read alike, the source gives them in different places. Bridge positions count the residues as written; N and C are the ends. Square brackets hold non-standard residues; d marks the D form. Ends that are not written are not given here. Peptide text beside a SMILES is read from it. Pen = CC(C)(S)[C@H](N)C(=O)O
How the values were obtained:
[1] = system: human tonsil T cells (responders) with irradiated human mononuclear stimulator cells; T-cell proliferation; format: cell-based; conditions: for inhibitory effect on T-cell proliferation: FIG. 3, tested at 125, 250 and 500 μM; for effectiveness in inhibiting responder T-cell proliferation: FIG. 2, tested at 50, 150, 250, 350, 500 and 750 μM; for Inhibition of T-cell Proliferation (%): peptides at 500 μM
Excerpt: The one-way MLR has been previously described (Kruisbeek et al., Current Protocols in Immunology, Proliferative Assays for T-Cell Function, '3.12.1-3.12.14 (1991), which is incorporated herein by reference). Specifically, human tonsil T cells were suspended at a concentration of 2−4×10^6 cells/ml in cell culture medium (RPMI), for use as responders. Stimulator cells were human mononuclear cells isolated from first Ficoll separation of peripheral blood (buffy coat) and were suspended at a concentration of 2−4×10^6 cells/ml in cell culture medium (RPMI). The stimulator cells were inactivated before use by treatment with 3,000-5,000 rad of ionizing radiation from γ137Cs source. One hundred μl of each cell suspension were combined in each well of a 96-well plate in the absence or presence of varying concentrations of test polypeptides, as detailed below. Cell proliferation was assessed after 72 hours, by 3H-thymidine addition to each well (1 μCi/well, 67 Ci/mmol) with incubation for six hours. The cells were harvested using a PHD Cell Harvester (Cambridge Technology, Inc., Watertown, Mass.); the incorporated 3H was assessed using a liquid scintillation counter (Packard Instrument, Inc., Donner's Grove, Ill.).
In FIGS. 2 and 3, the Y-axis values are mean percentage ±SE of proliferation of responders. “2s” refers to irradiated buffy coat cells, and “2r” refers to T-lymphocytes derived from tonsil. “2s2r” refers to non-treated, mixed lymphocyte sample, which is the positive control (represented by dashed line). Inhibition of proliferation by anti-CD11a antibody (Pharmingen, anti-human CD11a) was used as a control for inhibition of the LFA-1/ICAM-1 interaction. These polypeptides are derived from the human LFA-1 β (CD18) subunit.

[2] = biological target: intracellular adhesion molecule (ICAM-1; CD54) (UniProt P05362 28-532, limits assumed); test: cell-based or functional assay
Chain of intracellular adhesion molecule (ICAM-1; CD54) (P05362 28-532 limits assumed): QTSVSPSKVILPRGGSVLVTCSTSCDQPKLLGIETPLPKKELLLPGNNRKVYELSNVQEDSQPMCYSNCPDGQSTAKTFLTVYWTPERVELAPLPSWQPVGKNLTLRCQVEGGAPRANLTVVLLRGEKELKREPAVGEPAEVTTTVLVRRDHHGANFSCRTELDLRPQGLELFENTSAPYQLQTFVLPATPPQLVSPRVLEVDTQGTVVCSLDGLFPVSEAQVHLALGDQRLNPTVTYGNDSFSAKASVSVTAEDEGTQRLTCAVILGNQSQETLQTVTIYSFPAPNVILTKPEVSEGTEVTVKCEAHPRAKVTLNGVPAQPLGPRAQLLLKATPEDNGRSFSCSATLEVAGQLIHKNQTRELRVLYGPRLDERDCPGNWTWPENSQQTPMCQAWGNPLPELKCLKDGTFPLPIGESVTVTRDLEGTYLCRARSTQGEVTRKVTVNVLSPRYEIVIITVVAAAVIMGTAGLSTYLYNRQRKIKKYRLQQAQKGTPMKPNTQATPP

[3] = linear D-peptides (*3), minus value = peptide activated T-lymphocytes

Molecule: CC(C)C[C@@H](NC(=O)[C@H](N)CC(=O)O)C(=O)N[C@H](CO)C(=O)N[C@H](Cc1ccc(O)cc1)C(=O)N[C@H](CO)C(=O)N[C@H](CC(C)C)C(=O)N[C@H](CC(=O)O)C(=O)N[C@H](CC(=O)O)C(=O)N[C@H](CC(C)C)C(=O)N[C@H](CCCNC(=N)N)C(=O)O [D-LBEL, H-DLSYSLDDLR-OH] (H-[dD][dL][dS][dY][dS][dL][dD][dD][dL][dR]-OH)
- inhibiting T-cell proliferation in MLR assays [1]: significantly effective
- inhibitory effect on T-cell proliferation [1]: amazing inhibitory effect, which was much more effective than either LBE or cLBEL

Molecule: CC(C)C[C@@H]1NC(=O)[C@H](CCCCN)NC(=O)[C@H](CCCCN)NC(=O)[C@H](C(C)C)NC(=O)[C@H](CC(N)=O)NC(=O)[C@H](CCCNC(=N)N)NC(=O)[C@H](CC(C)C)NC(=O)[C@H](CC(=O)O)NC(=O)[C@@H](N)C(C)(C)SSC[C@@H](C(N)=O)NC(=O)CNC(=O)CNC1=O [cLBEC, H-PenDLRNVKKLGGC-NH2] (H-[Pen]DLRNVKKLGGC-NH2; disulfide 1-12)
- effectiveness in inhibiting responder T-cell proliferation [1]: more effective than LBE

Molecule: CC(C)C[C@@H]1NC(=O)[C@H](CC(=O)O)NC(=O)[C@H](CC(=O)O)NC(=O)[C@H](CC(C)C)NC(=O)[C@H](CO)NC(=O)[C@H](Cc2ccc(O)cc2)NC(=O)[C@H](CO)NC(=O)[C@H](CC(C)C)NC(=O)[C@H](CC(=O)O)NC(=O)[C@@H](N)C(C)(C)SSC[C@@H](C(N)=O)NC(=O)[C@H](CCCNC(=N)N)NC1=O [cLBEL, H-PenDLSYSLDDLRC-NH2] (H-[Pen]DLSYSLDDLRC-NH2; disulfide 1-12)
- effectiveness in inhibiting responder T-cell proliferation [1]: more effective than LBE

Molecule: H-DLRNVKKLGG-H (H-[dD][dL][dR][dN][dV][dK][dK][dL]GG; not fully specified; also: C-terminus written -H) [D-LBEC]
- inhibitory effect on T-cell proliferation [1]: did not show any inhibitory effects
- Inhibition of T-cell Proliferation (%) [1, 3]: −47.6(*4) %

Molecule: H-GGDLLRALNE-OH (H-GG[dD][dL][dL][dR][dA][dL][dN][dE]-OH) [D-LBER]
- inhibitory effect on T-cell proliferation [1]: lost the biological function to inhibit T-cell proliferation
- Inhibition of T-cell Proliferation (%) [1, 3]: −90.5(*4) %

Molecule: LBEL: linear L-peptide of Table 2, sequence not printed (DLSYSLDDLR)
- Inhibition of T-cell Proliferation (%) ([1]; linear L-peptides (*1), second value of cell 'x/y'): N.D./24.8%

Molecule: DLSYSLDDLR [LBEL (linear L-peptide)]
- Inhibition of T-cell Proliferation (%) in mixed lymphocyte reaction, peptide at 500 µM [2]: 24.8%

Molecule: H-[dD][dL][dR][dN][dV][dK][dK][dL]GG (not fully specified (C-terminus)) [D-LBEC]
- Inhibition of T-cell Proliferation (%) in mixed lymphocyte reaction, peptide at 500 µM [2]: -47.6%

B1: D-LBER (peptide)
peptide: H-GG[dD][dL][dL][dR][dA][dL][dN][dE]-OH
SMILES: CC(C)C[C@@H](NC(=O)[C@@H](C)NC(=O)[C@@H](CCCNC(=N)N)NC(=O)[C@@H](CC(C)C)NC(=O)[C@@H](CC(C)C)NC(=O)[C@@H](CC(=O)O)NC(=O)CNC(=O)CN)C(=O)N[C@H](CC(N)=O)C(=O)N[C@H](CCC(=O)O)C(=O)O
- Inhibition of T-cell Proliferation (%) in mixed lymphocyte reaction, peptide at 500 µM [2]: -90.5%

B2: cLBEL (peptide)
peptide: H-[Pen]DLSYSLDDLRC-NH2
modifications: disulfide 1-12
SMILES: CC(C)C[C@@H]1NC(=O)[C@H](CC(=O)O)NC(=O)[C@H](CC(=O)O)NC(=O)[C@H](CC(C)C)NC(=O)[C@H](CO)NC(=O)[C@H](Cc2ccc(O)cc2)NC(=O)[C@H](CO)NC(=O)[C@H](CC(C)C)NC(=O)[C@H](CC(=O)O)NC(=O)[C@@H](N)C(C)(C)SSC[C@@H](C(N)=O)NC(=O)[C@H](CCCNC(=N)N)NC1=O
- Inhibition of T-cell Proliferation (%) in mixed lymphocyte reaction, peptide at 500 µM [2]: 18%

B3: D-LBEL (peptide)
peptide: H-[dD][dL][dS][dY][dS][dL][dD][dD][dL][dR]-OH
SMILES: CC(C)C[C@@H](NC(=O)[C@H](N)CC(=O)O)C(=O)N[C@H](CO)C(=O)N[C@H](Cc1ccc(O)cc1)C(=O)N[C@H](CO)C(=O)N[C@H](CC(C)C)C(=O)N[C@H](CC(=O)O)C(=O)N[C@H](CC(=O)O)C(=O)N[C@H](CC(C)C)C(=O)N[C@H](CCCNC(=N)N)C(=O)O
- Inhibition of T-cell Proliferation (%) in mixed lymphocyte reaction, peptide at 500 µM [2]: 56.5%

B4: cLBEC (peptide)
peptide: H-[Pen]DLRNVKKLGGC-NH2
modifications: disulfide 1-12
SMILES: CC(C)C[C@@H]1NC(=O)[C@H](CCCCN)NC(=O)[C@H](CCCCN)NC(=O)[C@H](C(C)C)NC(=O)[C@H](CC(N)=O)NC(=O)[C@H](CCCNC(=N)N)NC(=O)[C@H](CC(C)C)NC(=O)[C@H](CC(=O)O)NC(=O)[C@@H](N)C(C)(C)SSC[C@@H](C(N)=O)NC(=O)CNC(=O)CNC1=O
- Inhibition of T-cell Proliferation (%) in mixed lymphocyte reaction, peptide at 500 µM [2]: 18%

Reference: patent publication US6599506B1, “D-form polypeptide that inhibits the interaction between LFA-1 and ICAM-1” (The University of Kansas, priority 1999, dated 2003)
